Test results taken from US7084301B2 (Ranbaxy Laboratories Limited, priority 2003, dated 2006).
Read-outs that look alike come from different tables or passages of the source.

Assays:
5-HT1A receptors = molecular target: T1, 5-HT1A receptors (Homo sapiens, UniProt P08908); test: biochemical; format: binding
T1 sequence (P08908 1-422): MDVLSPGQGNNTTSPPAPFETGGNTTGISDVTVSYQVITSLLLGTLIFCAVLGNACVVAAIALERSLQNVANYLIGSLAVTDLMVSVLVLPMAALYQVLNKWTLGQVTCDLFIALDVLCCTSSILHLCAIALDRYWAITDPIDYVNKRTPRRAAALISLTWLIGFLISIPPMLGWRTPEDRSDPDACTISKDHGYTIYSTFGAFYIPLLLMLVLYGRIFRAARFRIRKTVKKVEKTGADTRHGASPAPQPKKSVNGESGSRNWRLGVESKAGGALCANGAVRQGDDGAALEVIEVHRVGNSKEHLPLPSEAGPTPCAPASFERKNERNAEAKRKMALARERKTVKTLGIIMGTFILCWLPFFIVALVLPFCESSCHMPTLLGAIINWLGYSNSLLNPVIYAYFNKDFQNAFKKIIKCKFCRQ
Description: Receptor binding assays were performed using human recombinant 5HT1A receptors. […] Non-specific binding was defined by 10 μM Metergoline.

human α1B-adrenoceptors = molecular target: T2, human α1B-adrenoceptors (Homo sapiens, UniProt P35368); test: Radioligand-receptor binding assay, human recombinant α1B-adrenoceptor, [3H]prazosin
T2 sequence (P35368 1-520): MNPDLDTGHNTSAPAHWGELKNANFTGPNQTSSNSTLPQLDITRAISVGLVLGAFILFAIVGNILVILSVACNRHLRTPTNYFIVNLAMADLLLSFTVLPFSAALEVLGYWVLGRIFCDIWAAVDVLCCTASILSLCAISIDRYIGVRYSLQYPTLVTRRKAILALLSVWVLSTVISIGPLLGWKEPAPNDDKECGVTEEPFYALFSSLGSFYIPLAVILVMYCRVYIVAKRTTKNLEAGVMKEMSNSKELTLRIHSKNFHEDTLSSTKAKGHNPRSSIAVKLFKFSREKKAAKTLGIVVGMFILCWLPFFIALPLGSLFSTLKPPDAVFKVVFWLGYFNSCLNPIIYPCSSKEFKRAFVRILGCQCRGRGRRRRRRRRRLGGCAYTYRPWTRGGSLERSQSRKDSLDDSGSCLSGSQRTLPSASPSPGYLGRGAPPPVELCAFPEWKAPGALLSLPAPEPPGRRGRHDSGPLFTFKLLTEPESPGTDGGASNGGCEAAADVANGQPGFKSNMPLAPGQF
Description: Chinese hamster ovary (CHO) cells which had been stably transfected with human α1A, α1B, or α1D-adrenoceptors (Keffel et al., Biochem. Biophys. Res. Commun., 2000, 272, 906–11) were cultured in an atmosphere of 5% CO2/95% air at 37° C. in F-12 HAM medium supplemented with 10% heat-inactivated fetal calf serum, 1 mM glutamine, 100 U/ml penicillin and 0.1 mg/ml streptomycin. Selection pressure was maintained by regular addition of geneticin to the culture medium.
Competitive radioligand binding to the cloned subtypes of […] was performed using [^3H]prazosin as the radioligand as described by Michel et al, Br. J. Pharmacol., 98, 883–889 (1989) with minor modifications. Experiments were performed in binding buffer consisting of 50 mM Tris, 10 mM MgCl2 and 0.5 mM EDTA at pH 7.5 in a total assay volume of 1000 μl. The protein content typically was 40–60 μg/assay. The mixtures were incubated at 25° C. for 45 minutes. Incubations were terminated by rapid vacuum filtration over GF/C filters followed by two washes of the filters each with 10 ml ice-cold incubation buffer. Non-specific binding was defined as binding in the presence of 10 μM phentolamine.
The IC50 & Kd were estimated by using the non-linear curve fitting program using G Pad Prism software. The value of inhibition constant Ki was calculated from competitive binding studies by using Cheng & Prusoff equation [Cheng & Prusoff, Biochem. Pharmacol., 22, 3099–3108 (1973)], Ki=IC50/(1+L/Kd), where L is the concentration of [^3H] prazosin used in the particular experiment. Kd of [^3H] prazosin was determined from saturation binding studies. The values were tabulated as mean±SEM of pKi values, where pKi is the −log of Ki value.

D-3 receptors = D-3 receptors (Homo sapiens, UniProt P35462); conditions: reported, J. Med. Chem. 2000; cited from earlier work
D-3 receptors, sequence (P35462 whole entry): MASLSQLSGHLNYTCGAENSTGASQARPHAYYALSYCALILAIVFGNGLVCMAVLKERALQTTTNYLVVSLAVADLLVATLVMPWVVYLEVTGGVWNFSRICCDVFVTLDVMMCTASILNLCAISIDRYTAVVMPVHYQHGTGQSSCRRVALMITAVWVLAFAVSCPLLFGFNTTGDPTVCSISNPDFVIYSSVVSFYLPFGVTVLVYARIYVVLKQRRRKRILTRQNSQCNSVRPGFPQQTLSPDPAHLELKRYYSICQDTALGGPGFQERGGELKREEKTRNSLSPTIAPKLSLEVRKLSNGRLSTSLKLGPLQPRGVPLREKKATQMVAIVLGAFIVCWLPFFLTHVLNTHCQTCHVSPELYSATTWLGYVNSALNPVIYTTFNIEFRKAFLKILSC

[1] = molecular target: T3, rat α1B-adrenoceptor (spleen) (Rattus norvegicus, UniProt P15823); test: In-vitro functional study, agonist-induced contractile response on isolated rat spleen; format: biochemical
T3 sequence (P15823 1-515): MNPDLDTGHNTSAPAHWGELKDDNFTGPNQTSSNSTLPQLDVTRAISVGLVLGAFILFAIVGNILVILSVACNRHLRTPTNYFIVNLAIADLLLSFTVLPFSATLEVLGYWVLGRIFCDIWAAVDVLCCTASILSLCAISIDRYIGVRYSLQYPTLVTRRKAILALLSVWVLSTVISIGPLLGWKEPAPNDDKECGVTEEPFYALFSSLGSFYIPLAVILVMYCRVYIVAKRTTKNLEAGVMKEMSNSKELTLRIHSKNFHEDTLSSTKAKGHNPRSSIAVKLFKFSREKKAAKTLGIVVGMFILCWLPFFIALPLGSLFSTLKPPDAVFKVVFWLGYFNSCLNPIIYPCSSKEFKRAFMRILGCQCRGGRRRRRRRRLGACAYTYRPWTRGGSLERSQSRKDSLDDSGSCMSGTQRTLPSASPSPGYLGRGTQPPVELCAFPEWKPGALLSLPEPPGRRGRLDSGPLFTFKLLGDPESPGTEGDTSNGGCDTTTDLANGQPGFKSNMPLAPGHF
Description: Aorta, prostate and spleen tissues were isolated from urethane anaesthetized (1.5 gm/kg) male wistar rats. Isolated tissues were mounted in organ bath containing Krebs Henseleit buffer of following compostion (mM): NaCl 118; KCl 4.7; CaCl2 2.5; MgSO4.7H2O 1.2; NaHCO3 25; KH2PO4 1.2; glucose 11.5. Buffer was maintained at 37° C. and aerated with a mixture of 95% O2 and 5% CO2. A resting tension of 2 g (aorta) or 1 g (spleen and prostate) was applied to tissues. Contractile response was monitored using a force displacement transducer and recorded on chart recorders. Tissues were allowed to equilibrate for 2 hours. At the end of equilibration period, concentration response curves to norepinephrine (aorta) and phenylepinephrine (spleen and prostate) were obtained in absence and presence of tested compound (at concentrations of […]). Antagonist affinities were calculated and expressed as pKB vales in Table II.
To compare the differences in pKB at the α1-arenrenoceptor subtypes one-way ANOVA followed by Dunett ‘t’ test was applied. A p<0.05 was considered statistically significant.

| SMILES | Ki (5-HT1A receptors; human recombinant receptors, read-out: PKi 5HT1A (converted)) | Ki (human α1B-adrenoceptors; human recombinant receptors in CHO cells, mean ± SEM, read-out: pKi α1B (converted)) | affinity for D-3 receptors (D-3 receptors) | Kb ([1]; rat spleen, phenylepinephrine-induced contraction, *p < 0.05 vs pKB at prostate tissue, read-out: pKB α1B (converted)) | Ki (5-HT1A receptors) | fold greater α1A versus 5HT1A selectivity as compared to tamsulosin (5-HT1A receptors; Tables I and III) | fold lower affinity for 5HT1A receptors than tamsulosin (5-HT1A receptors; human recombinant receptors) | Ki (human α1B-adrenoceptors) | Kb [1] |
| --- | --- | --- | --- | --- | --- | --- | --- | --- | --- |
| CCOc1ccccc1OCCNC(C)Cc1ccc(OC)c(S(N)(=O)=O)c1 (single isomer, unassigned; (-)) [Tamsulosin, (−) isomer of 5-[2-[2-(2-ethoxyphenoxy)ethylamino]-2-methylethyl]-2-methoxybenzene sulfonamide, reference compound] | 0.794 nM | 0.692 nM | subnanomolar affinity | 0.275 nM | – | – | – | – | – |
| CCOc1ccccc1OCCN[C@H](C)Cc1ccc(O)c(S(N)(=O)=O)c1 [Formula I, R (−)-5-[2-[[2-(2-ethoxyphenoxy)ethyl]amino]propyl]-2-hydroxybenzenesulfonamide] | – | – | – | – | 9.77 nM | 27 fold | 12.6 fold | 0.324 nM | 0.501 nM |
